Experimental data published in US10660967B2, “Curcumin conjugates and methods of use thereof” (priority 2016, dated 2020).
Where two headings read alike, the source gives them in different places.

Experiments:
[1] = system: A-549 (lung) carcinoma cell line; assay: Anti-tumor properties, MTT; format: cell-based; details: Homo sapiens, A549
[2] = system: HepG2 (hepatocellular) carcinoma cell line; assay: Anti-tumor properties, MTT; format: cell-based; details: Homo sapiens, HepG2; read-out: IC50 (μM) HepG2 (liver)
In short: (§1)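 Cells seeded at 10×10^3 per well for 24 h, then exposed to compound in serum-free medium (final up to 100 μM, 0.5% DMSO vehicle) for 72 h in triplicate. Viability by MTT reduction (4 h, SDS solubilised), absorbance 595 nm/ref 620 nm; IC50 from survival curves.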

[3] = system: HCT116 (colon) carcinoma cell line; assay: Anti-tumor properties, MTT; format: cell-based; details: Homo sapiens, HCT-116; read-out: IC50 (μM) HCT116 (colon)
In short: as §1

[4] = system: MCF7 (breast) carcinoma cell line; assay: Anti-tumor properties, MTT; format: cell-based; details: Homo sapiens, MCF7; read-out: IC50 (μM) MCF7 (breast)
In short: as §1

[5] = system: Salmonella typhi ATCC19430; assay: Antimicrobial MIC, agar dilution; format: cell-based; details: Salmonella enterica, read-out: Minimum inhibitory concentration (MIC)
[6] = system: PC3 (prostate) carcinoma cell line; assay: Anti-tumor properties, MTT; format: cell-based; details: Homo sapiens
[7] = system: Candida albicans (local isolate); assay: Antimicrobial MIC, agar dilution; details: Candida albicans, read-out: Minimum inhibitory concentration (MIC)
[8] = system: lipopolysaccharide-stimulated peritoneal macrophages; assay: Production of nitric oxide by lipopolysaccharide-stimulated peritoneal macrophages (Greiss reagent); format: cell-based; parameters: Potency (%): % inhibition of nitric oxide production relative to lipopolysaccharide-stimulated macrophages: concentration or dose not given beside the values; details: LPS-stimulated peritoneal macrophages; for Nitric oxide (nitrite) concentration, μM (average ± SD): 24 h, nitrite by Greiss reagent
In short: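 NO output was quantified as accumulated nitrite, reacting supernatant with Greiss reagent (sulfanilamide/α-naphthylamine) and reading at 532 nm. Beforehand, cells had been incubated 24 h at 37° C. in nitrite-free, 0.1% BSA medium with 0.5–10 ng/ml LPS, with or without catecholamines at […].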

gastric mucosa = assay: Ulcerogenic liability (ulcer index); format: in vivo, albino mice; details: orally, three successive days, 10 mg/kg indomethacin mol equivalent; for Number of animals with ulcer: 6 animals per group; for Ulcer index: sum of the three values
In short: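 Albino mice were fasted 18 h before dosing, and controls got saline with a few drops of Tween 80. Gastric mucosa was checked under a 10× lens for lesions and erosions. The ulcer index combines percentage incidence divided by 10, mean ulcers per stomach and mean severity.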

[9] = system: PHA-stimulated splenocytes; assay: Proliferative response of PHA-stimulated splenocytes (MTT assay); format: cell-based; details: PHA 5 μg/ml, 72 hr; compounds at 5 μM (method says 10 μM); ratio of O.D. versus vehicle control
In short: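 Readout was MTT absorbance (570 nm, reference 690 nm) after 72 h culture at 37° C. Splenocytes at 1×10^6 cells/well received test compound (10 μM final) alone or plus PHA 5 μg/ml as T-cell mitogen. Values are OD ratios of compound over vehicle control (stimulation index).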

[10] = system: Streptococcus pyogenes ATCC19615; assay: Antimicrobial MIC, agar dilution
[11] = system: Staphylococcus aureus ATCC25923; assay: Antimicrobial MIC, agar dilution
[12] = system: Pseudomonas aeruginosa ATCC27853; assay: Antimicrobial MIC, agar dilution
[13] = ATCC19615, 18 h, read-out: Minimum inhibitory concentration (MIC)
[14] = ATCC19615, read-out: Minimum inhibitory concentration (MIC)
[15] = ATCC25923, 18 h, read-out: Minimum inhibitory concentration (MIC)
[16] = ATCC25923, read-out: Minimum inhibitory concentration (MIC)
[17] = ATCC27853, 18 h, read-out: Minimum inhibitory concentration (MIC)
[18] = ATCC27853, read-out: Minimum inhibitory concentration (MIC)

Structure (SMILES)	IC50 [1] [µM]	IC50 [2] [µM]	IC50 [3] [µM]	IC50 [4] [µM]	MIC ([5]; 18 h) [µg/mL]	MIC [5] [µM]	IC50 [6] [µM]	MIC ([7]; 18 h) [µg/mL]	MIC [7] [µM]	Potency (%): % inhibition of nitric oxide production relative to lipopolysaccharide-stimulated macrophages [8] [%]	Nitric oxide (nitrite) concentration, μM (average ± SD) [8] [µM]	% Incidence of ulcer divided by 10 (gastric mucosa)	Average of ulcer number (gastric mucosa)	Average severity of ulcer (gastric mucosa)	Number of animals with ulcer (gastric mucosa)	Ulcer index (gastric mucosa)	Stimulation Index (average ± SD) [9]	MIC [10, 13] [µg/mL]	MIC [10, 14] [µM]	MIC [11, 15] [µg/mL]	further results
COc1cc(/C=C/C(=O)CC(=O)/C=C/c2ccc(OC(=O)[C@H](CCSC)NC(=O)OC(C)(C)C)c(OC)c2)ccc1OC(=O)[C@H](CCSC)NC(=O)OC(C)(C)C [Boc-L-Met-Cur, ((1E,6E)-3,5-dioxohepta-1,6-diene-1,7-diyl)bis(2-methoxy-4,1-phenylene) (2S,2′S)-bis(2-((tert-butoxycarbonyl)amino)-4-(methylthio)butanoate)]	> 100	> 100	> 100	36.3	2	2.41	> 100	1	1.2	40.84	16.16 ± 0.64	0	0	0	0/6	0	1.37 ± 0.10	2	2.41	2	MIC [11, 16]: 2.41 µM; MIC [12, 17]: 1 µg/mL; MIC [12, 18]: 1.2 µM
COc1cc(/C=C/C(=O)CC(=O)/C=C/c2ccc(OC(=O)[C@@H](C)N)c(OC)c2)ccc1OC(=O)[C@@H](C)N.Cl.Cl [HCl-D-Ala-Cur, (2R,2′R)-1,1′-((((1E,6E)-3,5-dioxohepta-1,6-diene-1,7-diyl)bis(2-methoxy-4,1-phenylene))bis(oxy))bis(1-oxopropan-2-aminium) chloride]	30.9	34.3	39.2	10.4	0.25	0.428	30.7	0.125	0.214	41.26	16.04 ± 0.46	0	0	0	0/6	0	1.35 ± 0.07	0.25	0.428	0.125	MIC [11, 16]: 0.214 µM; MIC [12, 17]: 1 µg/mL; MIC [12, 18]: 1.71 µM
COc1cc(/C=C/C(=O)CC(=O)/C=C/c2ccc(OC(=O)CN)c(OC)c2)ccc1OC(=O)CN.Cl.Cl [HCl-Gly-Cur, 2,2′-((((1E,6E)-3,5-dioxohepta-1,6-diene-1,7-diyl)bis(2-methoxy-4,1-phenylene))bis(oxy))bis(2-oxoethan-1-aminium) chloride]	18.9	39.8	36.2	9.15	0.25	0.45	38.7	1	1.8	49.98	13.66 ± 1.05	0	0	0	0/6	0	0.99 ± 0.16	0.25	0.45	0.5	MIC [11, 16]: 0.9 µM; MIC [12, 17]: 1 µg/mL; MIC [12, 18]: 1.8 µM
COc1cc(/C=C/C(=O)CC(=O)/C=C/c2ccc(OC(=O)[C@@H](N)CCSC)c(OC)c2)ccc1OC(=O)[C@@H](N)CCSC.Cl.Cl [HCl-L-Met-Cur, (2S,2′S)-1,1′-((((1E,6E)-3,5-dioxohepta-1,6-diene-1,7-diyl)bis(2-methoxy-4,1-phenylene))bis(oxy))bis(4-(methylthio)-1-oxobutan-2-aminium) chloride]	32.8	39.8	61.9	11.3	0.125	0.178	42.6	0.5	0.711	37.94	16.95 ± 0.40	0	0	0	0/6	0	1.49 ± 0.06	0.5	0.711	0.25	MIC [11, 16]: 0.355 µM; MIC [12, 17]: 0.5 µg/mL; MIC [12, 18]: 0.711 µM
COc1cc(/C=C/C(=O)CC(=O)/C=C/c2ccc(OC(=O)CCN)c(OC)c2)ccc1OC(=O)CCN.Cl.Cl [HCl-β-Ala-Cur, 3,3′-((((1E,6E)-3,5-dioxohepta-1,6-diene-1,7-diyl)bis(2-methoxy-4,1-phenylene))bis(oxy))bis(3-oxopropan-1-aminium) chloride]	32.4	36.4	42.3	9.36	1	1.71	30.2	0.5	0.857	41.68	15.93 ± 0.29	0	0	0	0/6	0	1.39 ± 0.98	1	1.71	1	MIC [11, 16]: 1.71 µM; MIC [12, 17]: 1 µg/mL; MIC [12, 18]: 1.71 µM
COc1cc(/C=C/C(=O)CC(=O)/C=C/c2ccc(OC(=O)[C@@H](C)NC(=O)OCc3ccccc3)c(OC)c2)ccc1OC(=O)[C@@H](C)NC(=O)OCc1ccccc1 [Z-D-Ala-Cur, ((1E,6E)-3,5-dioxohepta-1,6-diene-1,7-diyl)bis(2-methoxy-4,1-phenylene) (2R,2′R)-bis(2-(((benzyloxy)carbonyl)amino)propanoate)]	> 100	> 100	> 100	73	0.5	0.642	> 100	0.5	0.642	35.45	17.63 ± 0.92	0	0	0	0/6	0	1.59 ± 0.14	0.125	0.161	0.5	MIC [11, 16]: 0.642 µM; MIC [12, 17]: 1 µg/mL; MIC [12, 18]: 1.28 µM
COc1cc(/C=C/C(=O)CC(=O)/C=C/c2ccc(OC(=O)[C@@H](CCSC)NC(=O)OCc3ccccc3)c(OC)c2)ccc1OC(=O)[C@@H](CCSC)NC(=O)OCc1ccccc1 [Z-D-Met-Cur, ((1E,6E)-3,5-dioxohepta-1,6-diene-1,7-diyl)bis(2-methoxy-4,1-phenylene) (2R,2′R)-bis(2-(((benzyloxy)carbonyl)amino)-4-(methylthio)butanoate)]	> 100	> 100	> 100	> 100	0.5	0.556	> 100	0.125	0.139	40.84	16.16 ± 1.90	0	0	0	0/6	0	1.37 ± 0.29	0.125	0.139	0.125	MIC [11, 16]: 0.139 µM; MIC [12, 17]: 1 µg/mL; MIC [12, 18]: 1.11 µM
